Test results published in US20170042936A1, “COMPOSITION FOR LOCAL AND CONTROLLED RELEASE OF DRUGS AND METHODS THEREOF” (INEB - INSTITUTO NACIONAL DE ENGENHARIA BIOMÉDICA, priority 2014, published 2017).
Entries after “also recorded” stand apart in the source; their conditions may differ.

Key:
MC3T3-E1 cells [1] = test: Metabolic activity of pre-osteoblasts (resazurin) in presence of released vancomycin; assay type: cell-based, mouse
Description: (§1) The pre-osteoblasts MC3T3-E1 cells, an osteoblastic cell line derived from mouse calvaria, were grown in alpha minimum essential medium (α-MEM, Gibco, Life Technologies, Grand Island, N.Y.), supplemented with 1% penicillinstreptomycin (Gibco) and 10% fetal bovine serum (FBS, Invitrogen, Carlsbad, Calif.). Cells were incubated in a humidified environment at 37° C. and 5% of CO2. Vancomycin adsorption on granules was performed as mentioned earlier. Granules were placed in 96-well plates, and cells were seeded using a density of 5×10^4 cells/mL. Cells were cultured for 21 days, and medium was changed three times a week. As control, cells were cultured on tissue culture polystyrene (TCPS) with the same conditions used for the granules. For each condition, six replicates were used for the resazurin assay.
In an embodiment, the metabolic activity was also performed. The nontoxic alamar blue (resazurin) dye was used to determine the metabolic activity of MC3T3-E1 cells. The blue nonfluorescent dye is metabolized by cells, converting it to a reduced pink fluorescence dye. Therefore, 10% (v/v) of resazurin was added to the medium and incubated for 4 h at 37° C. and 5% of CO2. Afterward, 100 μL was transferred into a black 96-well plate, and fluorescence was measured at 530 nm excitation and 590 nm emission wavelength with a fluorescence reader (SynergyMix, BioTek, Winooski, Vt.) using Gen5 1.09 Data Analysis Software. These measurements were made at 24 h and 4, 7, 14, and 21 days of culture.

MC3T3-E1 cells [2] = test: Cell morphology on granules by SEM and confocal laser scanning microscopy; assay type: cell-based, mouse; conditions: in presence of vancomycin
Description: as §1
Granules with seeded cells were rinsed with PBS and fixer using 1.5% gluteraldehyde (v/v) (Agar) in 0.14 M sodium cacodyl-ate buffer (Merck, Kenilworth, N.J.) at RT for 30 min. The samples were washed twice with PBS and then dehydrated in graded series of ethanol. Hexamethyldisilazane (Sigma) was added, and the samples were dried overnight at RT. Granules were visualized on SEM as previously described.
Confocal laser scanning microscopy. Granules with seeded cells were fixed using 4% paraformaldehyde for 15 min and then washed twice with PBS. Triton X-100 0.1% was used, for 5 min, to permeabilize the cells, and the cells were then incubated in 1% bovine serum albumin at 37° C. for 30 min. After incubation, the staining of the F-actin filaments was performed using Alexa Fluor 594 Phalloidin (1:100, Molecular Probes A12379, Invitrogen) in 1% bovine serum albumin at RT for 20 min in dark. The samples were then washed twice with PBS. Cell nuclei were stained with a solution of Hoechst dye (1:1000, Sigma) in PBS at RT for 15 min in dark. Finally, the samples were washed twice with PBS, and one drop of Vectashield was added. The images were acquired with a Leica SP5 Confocal microscope, using a […] oil immersion objective. […]

S. aureus ATCC 25923 = conditions: cited from earlier work

## CN[C@H](CC(C)C)C(=O)N[C@H]1C(=O)N[C@@H](CC(N)=O)C(=O)N[C@H]2C(=O)N[C@H]3C(=O)N[C@H](C(=O)N[C@H](C(=O)O)c4cc(O)cc(O)c4-c4cc3ccc4O)[C@H](O)c3ccc(c(Cl)c3)Oc3cc2cc(c3O[C@@H]2O[C@H](CO)[C@@H](O)[C@H](O)[C@H]2O[C@H]2C[C@](C)(N)[C@H](O)[C@H](C)O2)Oc2ccc(cc2Cl)[C@H]1O [vancomycin]
MC3T3-E1 cells [1]; vancomycin released from heparinized granules, after 14 days of culture
  viability of osteoblast cells in presence of vancomycin: cells were able to remain viable; also recorded: did not affect the viability of MC3T3-E1 cells
MC3T3-E1 cells [1]; vancomycin released from heparinized nanoHA/collagen granules, 24 h of culture
  metabolic activity of MC3T3-E1 cells versus without vancomycin: no difference in the metabolic activity
MC3T3-E1 cells [1]; vancomycin released from heparinized nanoHA/collagen granules, after 14 days up to 21 days of culture
  metabolic activity of MC3T3-E1 cells: increased their metabolic activity
MC3T3-E1 cells [1]; vancomycin released from heparinized nanoHA/collagen granules, until 7 days of culture
  metabolic activity of MC3T3-E1 cells: decrease in metabolic activity
MC3T3-E1 cells [2]; 24 h and 4 days
  MC3T3-E1 cell morphology (confocal microscopy): more rounded morphology
MC3T3-E1 cells [2]; after 7 days
  MC3T3-E1 cell morphology (confocal microscopy): started to elongate on the surface of the material
MC3T3-E1 cells [2]; after 14 days
  MC3T3-E1 cell morphology (confocal microscopy): well spread, covering the entire surface
S. aureus ATCC 25923
  vancomycin minimum inhibitory concentration (MIC): 1 µg/mL
